The target in one experiment is human AT2R fused to Cb23 (Homo sapiens, UniProt P50052). In words: Radioligand binding assay, displacement of 125I-[Sar1, Ile8]-Angiotensin II, hAT2R Cb23. Conditions: displacement of 125I-[Sar1, Ile8]-Angiotensin II, human AT2R fused to Cb23, HEK-293 cell membrane preparations; read-out: Binding affinity on hAT2R_Cb23 IC50. Summed up: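 Membranes from HEK-293 cells expressing human AT2R fused to Cb23 were incubated with 0.05 nM 125I-[Sar1, Ile8]-Angiotensin II in 100 μL buffer (50 mM Tris, 5 mM MgCl2, 1 mM EDTA, 0.1% BSA, pH 7.4) for one hour at 25° C. Ligands were tested as eight-point dose-response curves in duplicate, with C21 and Angiotensin II as references.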

The next experiment has as its target human AT1R (Homo sapiens (Human), UniProt P30556). Put plainly: Counterscreen radioligand binding assay, displacement of 125I-[Sar1, Ile8]-Angiotensin II, hAT1R WT. Conditions: 125I-[Sar1, Ile8]-Ang II, semi-quantitative score; for inhibition at 1 µM: compound at 1 μM, read-out: % Displaced radioligand at 1 μM; for inhibition at 10 µM: compound at 10 μM, read-out: % Displaced radioligand at 10 μM. The gist of the method: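 Compounds displaced 0.05 nM 125I-[Sar1, Ile8]-Ang II from human AT1R in HEK-293 membranes (1 h, 25° C; Tris/MgCl2/EDTA/BSA buffer, pH 7.4). Readout was filtration and scintillation counting, with non-specific binding set by 10 μM [Sar1]-Ang II. Values are % displacement at 1 μM and […], or IC50 from eight-point four-parameter fits.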
In general terms: A counterscreen serves to expose hits that act by an unwanted route or on another target.

One may read the IC50 as the concentration that inhibits the measured activity by half.

human AT2R fused to Cb23, sequence (P50052 whole entry, looked up, the tested form may be a part): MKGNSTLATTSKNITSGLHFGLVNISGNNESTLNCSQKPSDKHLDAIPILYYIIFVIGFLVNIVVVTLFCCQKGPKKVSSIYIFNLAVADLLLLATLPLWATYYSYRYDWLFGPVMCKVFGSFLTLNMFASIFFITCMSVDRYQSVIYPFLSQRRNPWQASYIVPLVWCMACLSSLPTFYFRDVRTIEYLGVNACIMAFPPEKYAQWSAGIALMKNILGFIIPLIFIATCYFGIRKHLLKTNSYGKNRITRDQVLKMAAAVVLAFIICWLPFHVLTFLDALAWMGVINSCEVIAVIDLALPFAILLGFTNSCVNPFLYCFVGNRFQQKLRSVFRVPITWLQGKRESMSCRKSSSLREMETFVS
human AT1R, sequence (P30556 whole entry): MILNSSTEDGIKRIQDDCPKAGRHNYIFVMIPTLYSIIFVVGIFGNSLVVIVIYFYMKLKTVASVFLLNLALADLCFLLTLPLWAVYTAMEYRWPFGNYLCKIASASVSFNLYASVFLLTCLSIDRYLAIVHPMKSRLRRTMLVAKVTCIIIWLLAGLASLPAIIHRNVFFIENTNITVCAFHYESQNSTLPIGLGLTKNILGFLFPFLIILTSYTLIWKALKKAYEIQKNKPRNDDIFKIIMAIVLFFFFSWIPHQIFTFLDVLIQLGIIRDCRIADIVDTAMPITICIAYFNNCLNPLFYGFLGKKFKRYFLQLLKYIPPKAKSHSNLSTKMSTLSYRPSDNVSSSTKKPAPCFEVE

For `c1ccc2sc(CN3CCN(c4cc(C5CC5)cnc4-c4nn[nH]n4)CC3)nc2c1` [Compound A-143, 2-[[4-[5-cycloprop-yl-2-(2H-tetrazol-5-yl)-3-pyridyl]piper-azin-1-yl]methyl]-1,3-benzothiazole], the IC50 at human AT2R fused to Cb23 was found to be 5.46 µM. Besides, on human AT1R, the inhibition at 1 µM is less than 30% and the inhibition at 10 µM is less than 30%.
On to `c1ccc2sc(CN3CCN(c4nc(C5CC5)ccc4-c4nn[nH]n4)CC3)nc2c1` [Compound A-145, 2-[[4-[6-cycloprop-yl-3-(2H-tetrazol-5-yl)-2-pyridyl]piper-azin-1-yl]methyl]-1,3-benzothiazole], for which the IC50 on human AT2R fused to Cb23 was 8.22 µM. Moreover, on human AT1R, the inhibition at 1 µM was less than 30% and the inhibition at 10 µM was less than 30%.
On to `c1ccc2sc(CN3CCN(c4nc(C5CC5)cnc4-c4nn[nH]n4)CC3)nc2c1` [Compound A-146, 2-[[4-[6-cycloprop-yl-3-(2H-tetrazol-5-yl)pyrazin-2-yl]-piperazin-1-yl]-methyl]-1,3-benzo-thiazole], for which, at human AT2R fused to Cb23, the IC50 stood at 9.74 µM. For the same molecule, on human AT1R, the inhibition at 1 µM was less than 30% and the inhibition at 10 µM was less than 30%.
Regarding `CC(C)Cc1cnc(-c2nn[nH]n2)c(N2CCN(Cc3nc4ccccc4s3)CC2)c1` [Compound A-147, 2-[[4-[5-isobutyl-2-(2H-tetrazol-5-yl)-3-pyridyl]piperazin-1-yl]methyl]-1,3-benzothiazole], the IC50 at human AT2R fused to Cb23 is 1.47 µM. In addition, on human AT1R, the inhibition at 1 µM is less than 30% and the inhibition at 10 µM is less than 30%.
`CC(C)Cc1ccc(-c2nn[nH]n2)c(N2CCN(Cc3nc4ccccc4s3)CC2)n1` [Compound A-148, 2-[[4-[6-isobutyl-3-(2H-tetrazol-5-yl)-2-pyridyl]piperazin-1-yl]methyl]-1,3-benzothiazole]: the IC50 at human AT2R fused to Cb23 is 6.24 µM. For the same molecule, on human AT1R, the inhibition at 1 µM was less than 30% and the inhibition at 10 µM is less than 30%.
On to `c1ccc2sc(CN3CCN(c4cc(NCC5CC5)cnc4-c4nn[nH]n4)CC3)nc2c1` [Compound A-149, 5-[4-(1,3-benzo-thiazol-2-ylmethyl)-piperazin-1-yl]-N-(cyclopropylmeth-yl)-6-(2H-tetrazol-5-yl)pyridin-3-amine], for which the IC50 on human AT2R fused to Cb23 turned out to be 8.4 µM. On human AT1R, the inhibition at 1 µM is less than 30% and the inhibition at 10 µM was less than 30%.
`CC(C)Oc1cc(F)c(-c2nn[nH]n2)c(N2CCN(Cc3nc4ccccc4c(=O)[nH]3)CC2)c1` [Compound A-151, 2-[[4-[3-fluoro-5-isopropoxy-2-(2H-tetrazol-5-yl)phen-yl]piperazin-1-yl]-methyl]-3H-quin-azolin-4-one]: the half-maximal inhibitory concentration (IC50) on human AT2R fused to Cb23 was found to be 6.79 µM. Further, at human AT1R, the inhibition at 1 µM is less than 30% and the inhibition at 10 µM was less than 30%.
`CC(C)Oc1cc(C2CC2)c(-c2nn[nH]n2)c(N2CCN(Cc3nc4ccccc4c(=O)[nH]3)CC2)c1` [Compound A-152]: the IC50 at human AT2R fused to Cb23 came to 2.87 µM. Moreover, at human AT1R, the inhibition at 1 µM was less than 30% and the inhibition at 10 µM is less than 30%.
As for `CC(C)Cc1cc(N2CCN(Cc3nc4ccccc4c(=O)[nH]3)CC2)c(-c2nn[nH]n2)cc1F` [Compound A-153, 2-[[4-[4-fluoro-5-isobutyl-2-(2H-tetrazol-5-yl)phen-yl]piperazin-1-yl]-methyl]-3H-quin-azolin-4-one], the half-maximal inhibitory concentration (IC50) on human AT2R fused to Cb23 was 8.42 µM. Also, at human AT1R, the inhibition at 1 µM is less than 30% and the inhibition at 10 µM was less than 30%.
On to `CC(C)Cc1cc(F)c(-c2nn[nH]n2)c(N2CCN(Cc3nc4ccccc4c(=O)[nH]3)CC2)c1` [Compound A-154, 2-[[4-[3-fluoro-5-isobutyl-2-(2H-tetrazol-5-yl)phen-yl]piperazin-1-yl]-methyl]-3H-quin-azolin-4-one], for which the IC50 at human AT2R fused to Cb23 was 0.16 µM. Besides, on human AT1R, the inhibition at 1 µM is less than 30% and the inhibition at 10 µM was less than 30%.
Consider `CCc1cc(OC(C)C)cc(N2CCN(Cc3cccnn3)CC2)c1-c1nn[nH]n1` [Compound A-159, 3-[[4-[3-ethyl-5-isopropoxy-2-(2H-tetrazol-5-yl)phen-yl]piperazin-1-yl]-methyl]pyridazine], for which the 50% inhibitory concentration (IC50) at human AT2R fused to Cb23 turned out to be 3.08 µM. Besides, on human AT1R, the inhibition at 1 µM is less than 30% and the inhibition at 10 µM was less than 30%.
As to `CC(C)Oc1cc(N2CCN(Cc3cccnn3)CC2)c(-c2nn[nH]n2)cc1C1CC1` [Compound A-160, 3-[[4-[4-cycloprop-yl-5-isopropoxy-2-(2H-tetrazol-5-yl)-phenyl]piperazin-1-yl]methyl]pyrid-azine], the IC50 on human AT2R fused to Cb23 is 4.94 µM. At human AT1R, the inhibition at 1 µM was less than 30% and the inhibition at 10 µM was less than 30%.
In the case of `CC(C)Oc1cc(C2CC2)c(-c2nn[nH]n2)c(N2CCN(Cc3cccnn3)CC2)c1` [Compound A-161, 3-[[4-[3-cycloprop-yl-5-isopropoxy-2-(2H-tetrazol-5-yl)-phenyl]piperazin-1-yl]methyl]pyrid-azine], on human AT2R fused to Cb23, the IC50 amounted to 1.46 µM. On human AT1R, the inhibition at 1 µM is less than 30% and the inhibition at 10 µM is less than 30%.
As to `CC(C)Cc1cc(N2CCN(Cc3cccnn3)CC2)c(-c2nn[nH]n2)cc1F` [Compound A-163, 3-[[4-[4-fluoro-5-isobutyl-2-(2H-tetrazol-5-yl)phen-yl]piperazin-1-yl]-methyl]pyridazine], on human AT2R fused to Cb23, the concentration for half-maximal inhibition (IC50) was 3.32 µM. Moreover, at human AT1R, the inhibition at 1 µM was less than 30% and the inhibition at 10 µM was less than 30%.
In the case of `CC(C)Cc1cc(F)c(-c2nn[nH]n2)c(N2CCN(Cc3cccnn3)CC2)c1` [Compound A-164, 3-[[4-[3-fluoro-5-isobutyl-2-(2H-tetrazol-5-yl)phen-yl]piperazin-1-yl]-methyl]pyridazine], the IC50 on human AT2R fused to Cb23 worked out at 1.3 µM. Besides, at human AT1R, the inhibition at 1 µM is less than 30% and the inhibition at 10 µM is less than 30%.
As to `CC(C)Cc1ccc(-c2nn[nH]n2)c(N2CCN(Cc3cccnn3)CC2)c1F` [Compound A-165, 3-[[4-[2-fluoro-3-isobutyl-6-(2H-tetrazol-5-yl)phen-yl]piperazin-1-yl]-methyl]pyridazine], on human AT2R fused to Cb23, the IC50 was determined as 0.681 µM. For the same molecule, at human AT1R, the inhibition at 1 µM is less than 30% and the inhibition at 10 µM was less than 30%.
`Cc1cc(CC(C)C)cc(N2CCN(Cc3cccnn3)CC2)c1-c1nn[nH]n1` [Compound A-167, 3-[[4-[5-isobutyl-3-methyl-2-(2H-tetrazol-5-yl)phen-yl]piperazin-1-yl]-methyl]pyridazine]: on human AT2R fused to Cb23, the IC50 was 0.0326 µM. At human AT1R, the inhibition at 1 µM was less than 30% and the inhibition at 10 µM is less than 30%.
Turning to `CC(C)Cc1cc(C2CC2)c(-c2nn[nH]n2)c(N2CCN(Cc3cccnn3)CC2)c1` [Compound A-169, 3-[[4-[3-cycloprop-yl-5-isobutyl-2-(2H-tetrazol-5-yl)phen-yl]piperazin-1-yl]-methyl]pyridazine], at human AT2R fused to Cb23, the IC50 amounted to 0.0253 µM. Besides, on human AT1R, the inhibition at 1 µM was less than 30% and the inhibition at 10 µM is less than 30%.
On to `CNc1cc(-c2nn[nH]n2)c(N2CCN(Cc3cccnn3)CC2)cc1CC(C)C` [Compound A-170, 2-isobutyl-N-meth-yl-4-[4-(pyridazin-3-ylmethyl)piper-azin-1-yl]-5-(2H-tetrazol-5-yl)aniline], for which the concentration for half-maximal inhibition (IC50) at human AT2R fused to Cb23 worked out at 12.1 µM. Also, at human AT1R, the inhibition at 1 µM is less than 30% and the inhibition at 10 µM was less than 30%.
Consider `CNc1cc(CC(C)C)cc(N2CCN(Cc3cccnn3)CC2)c1-c1nn[nH]n1` [Compound A-171, 5-isobutyl-N-meth-yl-3-[4-(pyridazin-3-ylmethyl)piper-azin-1-yl]-2-(2H-tetrazol-5-yl)aniline], for which the IC50 at human AT2R fused to Cb23 worked out at 0.0158 µM. In addition, at human AT1R, the inhibition at 1 µM is less than 30% and the inhibition at 10 µM is less than 30%.
Regarding `CCNc1cc(-c2nn[nH]n2)c(N2CCN(Cc3cccnn3)CC2)cc1CC(C)C` [Compound A-172, N-ethyl-2-isobutyl-4-[4-(pyridazin-3-ylmethyl)piperazin-1-yl]-5-(2H-tetrazol-5-yl)aniline], the IC50 at human AT2R fused to Cb23 was determined as 3.52 µM. For the same molecule, at human AT1R, the inhibition at 1 µM was less than 30% and the inhibition at 10 µM was less than 30%.
In the case of `CC(C)Cc1cc(F)c(-c2nn[nH]n2)c(N2CCN(Cc3cccnn3)[C@H](C)C2)c1` [Compound A-175, 3-[[(2R)-4-[3-fluoro-5-isobutyl-2-(2H-tetrazol-5-yl)phenyl]-2-meth-yl-piperazin-1-yl]-methyl]pyridazine], the IC50 on human AT2R fused to Cb23 is 0.322 µM. Also, on human AT1R, the inhibition at 1 µM was less than 30% and the inhibition at 10 µM was less than 30%.
Take `CC(C)Cc1ccc(-c2nn[nH]n2)c(N2CCN(Cc3cccnn3)[C@@H](C)C2)c1F` [Compound A-176, 3-[[(2S)-4-[2-fluoro-3-isobutyl-6-(2H-tetrazol-5-yl)phenyl]-2-methyl-piperazin-1-yl]methyl]pyridazine]: the IC50 at human AT2R fused to Cb23 was 0.0287 µM. On human AT1R, the inhibition at 1 µM was less than 30% and the inhibition at 10 µM was less than 30%.
For `CC(C)Cc1cnc(-c2nn[nH]n2)c(N2CCN(Cc3cccnn3)[C@@H](C)C2)c1` [Compound A-177, 3-[[(2S)-4-[5-isobutyl-2-(2H-tetrazol-5-yl)-3-pyridyl]-2-methyl-piperazin-1-yl]methyl]pyridazine], the half-maximal inhibitory concentration (IC50) at human AT2R fused to Cb23 was determined as 0.585 µM. Besides, at human AT1R, the inhibition at 1 µM is less than 30% and the inhibition at 10 µM is less than 30%.
